Test results reported in patent US20100179059A1, “Fungicidal Mixtures” (BASF SE, priority 2007, published 2010).
Like-named read-outs stand apart in the source and are kept apart here.

Assays:
Format in all cases: cell-based
[1] = test system: Pyricularia oryzae; conditions: active compound alone, 7 days after inoculation
[2] = test system: Botrytis cinerea; assay: Activity against the grey mold Botrytis cinerea in the microtiterplate test
[3] = test system: Septoria tritici; assay: Activity against leaf blotch on wheat caused by Septoria tritici (microtiter plate); conditions: active compound alone, 7 days after inoculation
[4] = Botrytis cinerea, 168 h, active compound alone, 7 days after inoculation, read-out: Observed efficacy
[5] = Botrytis cinerea, 168 h, active compound alone, 0.063 ppm, 7 days after inoculation, read-out: Observed efficacy

Compound: CC(C)(C)c1onc(-c2ccc(Cl)cc2Cl)c1C(O)c1cccnc1 (centres unmarked) [Cmpd No. 7, 3-(2,4-Dichlorophenyl)-5-(1,1-dimethylethyl)-4-[(3-pyridyl)hydroxymethyl]-isoxazole]
- Observed efficacy ([1]; 0.001 ppm): 2%

Compound: zinc propylenebis(dithiocarbamate) polymer [Propineb, reference compound]
- Observed efficacy ([2]; active compound alone, 4 ppm, 7 days after inoculation): 32%

Compound: OC(c1cccnc1)c1c(-c2ccc(Cl)cc2Cl)noc1-c1cccc(Cl)c1 (centres unmarked) [Cmpd No. 4, 5-(3-Chlorophenyl)-3-(2,4-dichlorophenyl)-4-[(3-pyridyl)hydroxymethyl]-isoxazole]
- inhibition of growth at 0.001 ppm [2, 4]: 2%

Compound: OC(c1cccnc1)c1c(-c2ccc(F)cc2)noc1-c1ccccc1Cl (centres unmarked) [Cmpd No. 90, 5-(2-Chlorophenyl)-3-(4-fluorophenyl)-4-[(3-pyridyl)-hydroxymethyl]-isoxazole]
- Observed efficacy ([3]; 0.00025 ppm): 9%
- Observed efficacy ([1]; 0.000063 ppm): 6%
- inhibition of growth at 4e-06 ppm ([2]; Botrytis cinerea, 168 h, active compound alone, 0.000004 ppm, 7 days after inoculation, read-out: Observed efficacy): 5%
- inhibition of growth at 1.6e-05 ppm ([2]; Botrytis cinerea, 168 h, active compound alone, 0.000016 ppm, 7 days after inoculation, read-out: Observed efficacy): 5%
- inhibition of growth at 6.3e-05 ppm ([2]; Botrytis cinerea, 168 h, active compound alone, 0.000063 ppm, 7 days after inoculation, read-out: Observed efficacy): 1%
- inhibition of growth at 0.00025 ppm [2, 4]: 1%

Compound: OC(Cc1ccccc1Cl)(Cn1nc[nH]c1=S)C1(Cl)CC1 (centres unmarked) [Prothioconazol, 2-[2-(1-chlorocyclopropyl)-3-(2-chlorophenyl)-2-hydroxypropyl]-2,4-dihydro-[1,2,4]triazole-3-thione, reference compound]
- inhibition of growth at 1 ppm ([2]; Botrytis cinerea, 168 h, active compound alone, 1 ppm, 7 days after inoculation, read-out: Observed efficacy): 46%

Compound: CC(C)OC(=O)N[C@H](C(=O)N[C@H](C)c1nc2ccc(F)cc2s1)C(C)C [Benthivalicarb, isopropyl {(S)-1-[(1R)-1-(6-fluorobenzothiazol-2-yl)ethylcarbamoyl]-2-methylpropyl}carbamate, reference compound]
- inhibition of growth at 0.063 ppm ([2]; Botrytis cinerea, 168 h, read-out: Observed efficacy): 0%

Compound: OC(c1cccnc1)c1c(-c2ccc(F)cc2F)noc1-c1ccc(Cl)cc1F (centres unmarked) [Cmpd No. 145, 3-(2,4-Difluorophenyl)-4-[(3-pyridyl)-hydroxymethyl]-5-(4-chloro-2-fluorophenyl)-isoxazole]
- Observed efficacy ([1]; 0.000063 ppm): 10%
- inhibition of growth at 0.001 ppm [2, 4]: 20%

Compound: manganese ethylenebis(dithiocarbanate) zinc complex [Mancozeb]
- Observed efficacy ([3]; 4 ppm): 52%

Compound: OC(c1cccnc1)c1c(-c2ccc(Cl)cc2)noc1-c1ccc(F)cc1 (centres unmarked) [Cmpd No. 88, 3-(4-Chlorophenyl)-5-(4-fluorophenyl)-4-[(3-pyridyl)-hydroxymethyl]-isoxazole]
- Observed efficacy ([1]; 1 ppm): 3%

Compound: COC(=O)N(OC)c1ccccc1COc1ccn(-c2ccc(Cl)cc2)n1 [Pyraclostrobin, reference compound]
- Observed efficacy ([1]; 0.016 ppm): 67%

Compound: Fc1ccc([C@]2(Cn3cncn3)O[C@H]2c2ccccc2Cl)cc1 (racemic) [Epoxiconazol, (2RS,3SR)-1-[3-(2-chlorophenyl)-2,3-epoxy-2-(4-fluorophenyl)propyl]-1H-1,2,4-triazole, reference compound]
- Observed efficacy ([3]; 0.063 ppm): 66%
- inhibition of growth at 0.25 ppm ([2]; Botrytis cinerea, 168 h, active compound alone, 0.25 ppm, 7 days after inoculation, read-out: Observed efficacy): 37%

Compound: Cc1cc(C)nc(Nc2ccccc2)n1 [Pyrimethanil, 4,6-dimethylpyrimidin-2-ylphenylamine, reference compound]
- Observed efficacy ([3]; 16 ppm): 38%
- inhibition of growth at 0.063 ppm [2, 5]: 5%

Compound: OC(c1cccnc1)c1c(-c2cc(F)cc(F)c2)noc1-c1ccc(Cl)cc1 (centres unmarked) [Cmpd No. 124, 5-(4-Chlorophenyl)-3-(3,5-difluorophenyl)-4-[(3-pyridyl)-hydroxymethyl]-isoxazole]
- inhibition of growth at 0.001 ppm [2, 4]: 1%

Compound: OC(c1cccnc1)c1c(-c2ccc(Cl)cc2F)noc1-c1ccccc1F (centres unmarked) [Cmpd No. 144, 3-(4-Chloro-2-fluorophenyl)-4-[(3-pyridyl)-hydroxymethyl]-5-(2-fluorophenyl)-isoxazole]
- Observed efficacy ([3]; 0.016 ppm): 16%
- inhibition of growth at 0.00025 ppm [2, 4]: 4%
- inhibition of growth at 0.001 ppm [2, 4]: 2%

Compound: COC(=O)Nc1nc2ccccc2[nH]1 [Carbendazim, methyl (1H-benzoimidazol-2-yl)-carbamate, reference compound]
- Observed efficacy ([1]; 0.25 ppm): 30%
- inhibition of growth at 0.063 ppm [2, 5]: 74%
